The values that follow come from BindingDB's records for doi:10.1016/j.bmcl.2006.04.011 (Ambrilia Biopharma, 2006).

pIC50, pKi: −log10 of the molar value. Where only a bound is given, the exact number is not on record here.

This test deals with T1, Dimer of Gag-Pol polyprotein [501-599] (Human immunodeficiency virus 1, UniProt P03367).
T1 construct: 501-599
Nature of the test: Protease Inhibition Assay. Here is the method: HIV-1 protease activity was measured by a continuous fluorometric assay. The proteolytic activity can be monitored by the increase in fluorescence intensity, and the protease products were analyzed by HPLC. IC50 values were determined from a dose-response curve, whereas Ki values were obtained by fitting initial rates to a tight-binding inhibition equation.

Take `CC(C)CN(C(CO)CCCCNC(=O)[C@@H](N)C(c1ccccc1)c1ccccc1)S(=O)(=O)c1ccc(N)cc1` (stereo partly drawn) [(2S)-2-amino-N-[(5R)-5-[(4-aminobenzene)(2-methylpropyl)sulfonamido]-6-hydroxyhexyl]-3,3-diphenylpropanamide]: the pIC50 is 9.30 and the pKi was 9.25.
In the case of `CC(C)CN(C(CO)CCCCNC(=O)[C@@H](NC(=O)C1CCCCC1)C(c1ccccc1)c1ccccc1)S(=O)(=O)c1ccc(N)cc1` (stereo partly drawn) [(2S)-N-[(5R)-5-[(4-aminobenzene)(2-methylpropyl)sulfonamido]-6-hydroxyhexyl]-2-(cyclohexylformamido)-3,3-diphenylpropanamide], the pIC50 was greater than 8.42.
`CC(C)CN(C(CO)CCCCNC(=O)[C@@H](NC(=O)C1CC1)C(c1ccccc1)c1ccccc1)S(=O)(=O)c1ccc(N)cc1` (stereo partly drawn) [(2S)-N-[(5R)-5-[(4-aminobenzene)(2-methylpropyl)sulfonamido]-6-hydroxyhexyl]-2-(cyclopropylformamido)-3,3-diphenylpropanamide] gave a pIC50 of 9.37 and a pKi of 9.35.
The corresponding values for `CC(C)CN(C(CO)CCCCNC(=O)[C@@H](NC(=O)N1CCOCC1)C(c1ccccc1)c1ccccc1)S(=O)(=O)c1ccc(N)cc1` (stereo partly drawn) [(2S)-N-[(5R)-5-[(4-aminobenzene)(2-methylpropyl)sulfonamido]-6-hydroxyhexyl]-2-(morpholin-4-ylcarbonylamino)-3,3-diphenylpropanamide] are 9.29 and 9.26.
In turn, `CC(C)CN(C(CO)CCCCNC(=O)[C@@H](NC(=O)c1ccccc1O)C(c1ccccc1)c1ccccc1)S(=O)(=O)c1ccc(N)cc1` (stereo partly drawn) [(2S)-N-[(5R)-5-[(4-aminobenzene)(2-methylpropyl)sulfonamido]-6-hydroxyhexyl]-2-[(2-hydroxyphenyl)formamido]-3,3-diphenylpropanamide] gave a pIC50 of 9.20 and a pKi of 9.24.
For `Cc1ncccc1C(=O)N[C@H](C(=O)NCCCCC(CO)N(CC(C)C)S(=O)(=O)c1ccc(N)cc1)C(c1ccccc1)c1ccccc1` (stereo partly drawn) [(2S)-N-[(5R)-5-[(4-aminobenzene)(2-methylpropyl)sulfonamido]-6-hydroxyhexyl]-2-[(2-methylpyridin-3-yl)formamido]-3,3-diphenylpropanamide], in that order: 9.40 and 9.40.
With `CC(C)CN(C(CO)CCCCNC(=O)[C@@H](NC(=O)c1ccc([N+](=O)[O-])c(O)c1)C(c1ccccc1)c1ccccc1)S(=O)(=O)c1ccc(N)cc1` (stereo partly drawn) [(2S)-N-[(5R)-5-[(4-aminobenzene)(2-methylpropyl)sulfonamido]-6-hydroxyhexyl]-2-[(3-hydroxy-4-nitrophenyl)formamido]-3,3-diphenylpropanamide], the pIC50 was 9.48 and the pKi is 9.48.
`CC(C)CN(C(CO)CCCCNC(=O)[C@@H](NC(=O)c1cccc(O)c1)C(c1ccccc1)c1ccccc1)S(=O)(=O)c1ccc(N)cc1` (stereo partly drawn) [(2S)-N-[(5R)-5-[(4-aminobenzene)(2-methylpropyl)sulfonamido]-6-hydroxyhexyl]-2-[(3-hydroxyphenyl)formamido]-3,3-diphenylpropanamide] showed a pIC50 of 9.40 and a pKi of 9.40.
Compound `CC(C)CN(C(CO)CCCCNC(=O)[C@@H](NC(=O)c1ncccc1O)C(c1ccccc1)c1ccccc1)S(=O)(=O)c1ccc(N)cc1` (stereo partly drawn) [(2S)-N-[(5R)-5-[(4-aminobenzene)(2-methylpropyl)sulfonamido]-6-hydroxyhexyl]-2-[(3-hydroxypyridin-2-yl)formamido]-3,3-diphenylpropanamide] had a pIC50 of 9.05 and a pKi of 9.15.
For `COc1cc(C(=O)N[C@H](C(=O)NCCCCC(CO)N(CC(C)C)S(=O)(=O)c2ccc(N)cc2)C(c2ccccc2)c2ccccc2)ccc1O` (stereo partly drawn) [(2S)-N-[(5R)-5-[(4-aminobenzene)(2-methylpropyl)sulfonamido]-6-hydroxyhexyl]-2-[(4-hydroxy-3-methoxyphenyl)formamido]-3,3-diphenylpropanamide], in that order: 9.30 and 9.35.
For `CC(C)CN(C(CO)CCCCNC(=O)[C@@H](NC(=O)c1ccc(O)c([N+](=O)[O-])c1)C(c1ccccc1)c1ccccc1)S(=O)(=O)c1ccc(N)cc1` (stereo partly drawn) [(2S)-N-[(5R)-5-[(4-aminobenzene)(2-methylpropyl)sulfonamido]-6-hydroxyhexyl]-2-[(4-hydroxy-3-nitrophenyl)formamido]-3,3-diphenylpropanamide], in that order: 9.25 and 9.32.
The corresponding values for `CC(C)CN(C(CO)CCCCNC(=O)[C@@H](NC(=O)c1ccc(O)cc1)C(c1ccccc1)c1ccccc1)S(=O)(=O)c1ccc(N)cc1` (stereo partly drawn) [(2S)-N-[(5R)-5-[(4-aminobenzene)(2-methylpropyl)sulfonamido]-6-hydroxyhexyl]-2-[(4-hydroxyphenyl)formamido]-3,3-diphenylpropanamide] are 9.28 and 9.33.
In turn, `CC(C)CN(C(CO)CCCCNC(=O)[C@@H](NC(=O)c1ccc(N)nc1)C(c1ccccc1)c1ccccc1)S(=O)(=O)c1ccc(N)cc1` (stereo partly drawn) [(2S)-N-[(5R)-5-[(4-aminobenzene)(2-methylpropyl)sulfonamido]-6-hydroxyhexyl]-2-[(6-aminopyridin-3-yl)formamido]-3,3-diphenylpropanamide] had a pIC50 of 9.40 and a pKi of 9.30.
With `CC(C)CN(C(CO)CCCCNC(=O)[C@@H](NC(=O)c1ccc(=O)[nH]c1)C(c1ccccc1)c1ccccc1)S(=O)(=O)c1ccc(N)cc1` (stereo partly drawn) [(2S)-N-[(5R)-5-[(4-aminobenzene)(2-methylpropyl)sulfonamido]-6-hydroxyhexyl]-2-[(6-hydroxypyridin-3-yl)formamido]-3,3-diphenylpropanamide], the pIC50 is 9.30 and the pKi is 9.40.
The corresponding values for `Cc1ccc(C(=O)N[C@H](C(=O)NCCCCC(CO)N(CC(C)C)S(=O)(=O)c2ccc(N)cc2)C(c2ccccc2)c2ccccc2)cn1` (stereo partly drawn) [(2S)-N-[(5R)-5-[(4-aminobenzene)(2-methylpropyl)sulfonamido]-6-hydroxyhexyl]-2-[(6-methylpyridin-3-yl)formamido]-3,3-diphenylpropanamide] are 9.40 and 9.30.
In turn, `CC(C)CN(C(CO)CCCCNC(=O)[C@@H](NC(=O)N(C)C)C(c1ccccc1)c1ccccc1)S(=O)(=O)c1ccc(N)cc1` (stereo partly drawn) [(2S)-N-[(5R)-5-[(4-aminobenzene)(2-methylpropyl)sulfonamido]-6-hydroxyhexyl]-2-[(dimethylcarbamoyl)amino]-3,3-diphenylpropanamide] showed a negative logarithm of the IC50 (pIC50) of 9.36 and a pKi of 9.24.
With `CC(=O)N[C@H](C(=O)NCCCCC(CO)N(CC(C)C)S(=O)(=O)c1ccc(N)cc1)C(c1ccccc1)c1ccccc1` (stereo partly drawn) [(2S)-N-[(5R)-5-[(4-aminobenzene)(2-methylpropyl)sulfonamido]-6-hydroxyhexyl]-2-acetamido-3,3-diphenylpropanamide], the pIC50 was 8.82.
Compound `CC(C)CN(C(CO)CCCCNC(=O)[C@@H](NC(=O)c1ccc[nH]1)C(c1ccccc1)c1ccccc1)S(=O)(=O)c1ccc(N)cc1` (stereo partly drawn) [(2S)-N-[(5R)-5-[(4-aminobenzene)(2-methylpropyl)sulfonamido]-6-hydroxyhexyl]-3,3-diphenyl-2-(1H-pyrrol-2-ylformamido)propanamide] gave a pIC50 of 9.37 and a pKi of 9.33.
The corresponding values for `CC(C)CN(C(CO)CCCCNC(=O)[C@@H](NC(=O)c1ccccn1)C(c1ccccc1)c1ccccc1)S(=O)(=O)c1ccc(N)cc1` (stereo partly drawn) [(2S)-N-[(5R)-5-[(4-aminobenzene)(2-methylpropyl)sulfonamido]-6-hydroxyhexyl]-3,3-diphenyl-2-(pyridin-2-ylformamido)propanamide] are 9.34 and 9.36.
For the compound `CC(C)CN(C(CO)CCCCNC(=O)[C@@H](NC(=O)c1cccnc1)C(c1ccccc1)c1ccccc1)S(=O)(=O)c1ccc(N)cc1` (stereo partly drawn) [(2S)-N-[(5R)-5-[(4-aminobenzene)(2-methylpropyl)sulfonamido]-6-hydroxyhexyl]-3,3-diphenyl-2-(pyridin-3-ylformamido)propanamide], the pIC50 was 9.17 and the pKi is 9.26.
The corresponding values for `CC(C)CN(C(CO)CCCCNC(=O)[C@@H](NC(=O)c1ccncc1)C(c1ccccc1)c1ccccc1)S(=O)(=O)c1ccc(N)cc1` (stereo partly drawn) [(2S)-N-[(5R)-5-[(4-aminobenzene)(2-methylpropyl)sulfonamido]-6-hydroxyhexyl]-3,3-diphenyl-2-(pyridin-4-ylformamido)propanamide] are 9.19 and 9.18.
For `CC(C)CN(C(CO)CCCCNC(=O)[C@@H](NC(=O)Cc1cccnc1)C(c1ccccc1)c1ccccc1)S(=O)(=O)c1ccc(N)cc1` (stereo partly drawn) [(2S)-N-[(5R)-5-[(4-aminobenzene)(2-methylpropyl)sulfonamido]-6-hydroxyhexyl]-3,3-diphenyl-2-[1-(pyridin-3-yl)acetamido]propanamide], in that order: 9.62 and 9.47.
For the compound `COC(=O)N1Cc2ccccc2C=C1C(=O)NCCCCC(CO)N(CC(C)C)S(=O)(=O)c1ccc(N)cc1` (stereo not given) [lysine sulfonamide analogue 8], the pIC50 (pH 4.7, 30 °C) is 6.89.
On the same count and under the same terms, with `COC(=O)N[C@@H](Cc1ccccc1-c1ccccc1)C(=O)NCCCCC(CO)N(CC(C)C)S(=O)(=O)c1ccc(N)cc1` (stereo partly drawn) [methyl N-[(1S)-1-{[(5R)-5-[(4-aminobenzene)(2-methylpropyl)sulfonamido]-6-hydroxyhexyl]carbamoyl}-2-(2-phenylphenyl)ethyl]carbamate] the figure was 9.28; with `COC(=O)N[C@@H](Cc1cccc2ccccc12)C(=O)NCCCCC(CO)N(CC(C)C)S(=O)(=O)c1ccc(N)cc1` (stereo partly drawn) [methyl N-[(1S)-1-{[(5R)-5-[(4-aminobenzene)(2-methylpropyl)sulfonamido]-6-hydroxyhexyl]carbamoyl}-2-(naphthalen-1-yl)ethyl]carbamate], 8.92.

In general, pIC50 refers to the negative decadic logarithm of the IC50, by convention in mol/L. Usually pKi stands for the negative decadic logarithm of the Ki, by convention in mol/L. A high value points to a small Ki.
